Results on three compounds are retold here after ChEMBL document CHEMBL5625199, “Discovery of triazole-bridged aryl adamantane analogs as an intriguing class of multifunctional agents for treatment of Alzheimer's disease” (Eur J Med Chem, 2023).

Active and inactive are the calls of the source. The calls are words filed in the database; no cut-off is given here.

Series [1] in a line: Antagonist activity at GluN1-1b/GluN2D (unknown origin) expressed in xenopus laevis oocytes assessed as inhibition of glycine/glutamate-induced channel current incubated for 20s measured at holding potential of -70 mV by two-electrode voltage clamp technique. The note with it: Homo sapiens, Oocyte. Type of series: cell-based. On the technique in general: Two-electrode voltage clamp is typically applied to oocytes expressing channels or transporters.

Series [2] in a line: Antagonist activity at GluN1-1b/GluN2A (unknown origin) expressed in xenopus laevis oocytes assessed as inhibition of glycine/glutamate-induced channel current incubated for 20s measured at holding potential of -70 mV by two-electrode voltage clamp technique. Type of series: cell-based. The note with it: Homo sapiens, Oocyte.
Series [3] can be described thus: Antagonist activity at GluN1-1a/GluN2C (unknown origin) expressed in xenopus laevis oocytes assessed as inhibition of glycine/glutamate-induced channel current incubated for 20s measured at holding potential of -70 mV by two-electrode voltage clamp technique. Type of series: cell-based. The note with it: Homo sapiens, Oocyte.
Series [4] in a line: Antagonist activity at GluN1-1b/GluN2B (unknown origin) expressed in xenopus laevis oocytes assessed as inhibition of glycine/glutamate-induced channel current incubated for 20s measured at holding potential of -70 mV by two-electrode voltage clamp technique. The note with it: Homo sapiens, Oocyte. Type of series: cell-based.
The nature of another series: in vitro. The note with it: PAMPA.
The nature of series [5]: Antagonist activity at GluN1-1a/GluN2A (unknown origin) expressed in xenopus laevis oocytes assessed as inhibition of glycine/glutamate-induced channel current incubated for 20s measured at holding potential of -70 mV by two-electrode voltage clamp technique. Type of series: cell-based. The note with it: Homo sapiens, Oocyte.
Series [6] in a line: Antagonist activity at GluN1-1a/GluN2D (unknown origin) expressed in xenopus laevis oocytes assessed as inhibition of glycine/glutamate-induced channel current incubated for 20s measured at holding potential of -70 mV by two-electrode voltage clamp technique. Type of series: cell-based. The note with it: Homo sapiens, Oocyte.
A short description of series [7]: Antagonist activity at GluN1-1b/GluN2C (unknown origin) expressed in xenopus laevis oocytes assessed as inhibition of glycine/glutamate-induced channel current incubated for 20s measured at holding potential of -70 mV by two-electrode voltage clamp technique. Format: cell-based. The note with it: Homo sapiens, Oocyte.
Series [8] in a line: Antagonist activity at GluN1-1a/GluN2B (unknown origin) expressed in xenopus laevis oocytes assessed as inhibition of glycine/glutamate-induced channel current incubated for 20s measured at holding potential of -70 mV by two-electrode voltage clamp technique. Type of series: cell-based, Homo sapiens. The note with it: Oocyte.
In series [9] the test system is HEK-293T. Briefly: Cytotoxicity against HEK293T cells assessed as reduction in cell viability at 0.3 to 100 uM measured after 44 hrs by WST-1 assay. Format: toxicity, cell-based. The note with it: human, dose 0.3-100 µM.
Series [10] deals with T1, Acetylcholinesterase (Homo sapiens, UniProt P22303). Kind of series: Inhibition of AChE (unknown origin).
Series [11] relates to Rattus norvegicus. Briefly: Antialzheimer activity against Abeta(1 to 42)-induced coginitive deficit Wistar rat model assessed as increase in total number of platform crossings at 10 mg/kg, po administered for 7 days by Morris water maze test. Format: functional, organism-based. The note with it: time 7.0 day.
For series [12], the target named is T2, Acetylcholinesterase (Electrophorus electricus, UniProt O42275). Kind of series: Non-competitive inhibition of electric eel AChE by Dixon plot analysis.
The subject of series [13] is HEK-293T. Kind of series: Cytotoxicity against HEK293T cells assessed as reduction in cell viability at 0.3 to 30 uM measured after 44 hrs by WST-1 assay. The note with it: human, dose 0.3-30 µM. Type of series: toxicity, cell-based. On the technique in general: Tetrazolium assays rely on reduction of a dye to a coloured formazan, in cell work by metabolically active cells.

The target of series [14] is T3, Acetylcholinesterase (Rattus norvegicus) (UniProt P37136).
T3 sequence (whole entry): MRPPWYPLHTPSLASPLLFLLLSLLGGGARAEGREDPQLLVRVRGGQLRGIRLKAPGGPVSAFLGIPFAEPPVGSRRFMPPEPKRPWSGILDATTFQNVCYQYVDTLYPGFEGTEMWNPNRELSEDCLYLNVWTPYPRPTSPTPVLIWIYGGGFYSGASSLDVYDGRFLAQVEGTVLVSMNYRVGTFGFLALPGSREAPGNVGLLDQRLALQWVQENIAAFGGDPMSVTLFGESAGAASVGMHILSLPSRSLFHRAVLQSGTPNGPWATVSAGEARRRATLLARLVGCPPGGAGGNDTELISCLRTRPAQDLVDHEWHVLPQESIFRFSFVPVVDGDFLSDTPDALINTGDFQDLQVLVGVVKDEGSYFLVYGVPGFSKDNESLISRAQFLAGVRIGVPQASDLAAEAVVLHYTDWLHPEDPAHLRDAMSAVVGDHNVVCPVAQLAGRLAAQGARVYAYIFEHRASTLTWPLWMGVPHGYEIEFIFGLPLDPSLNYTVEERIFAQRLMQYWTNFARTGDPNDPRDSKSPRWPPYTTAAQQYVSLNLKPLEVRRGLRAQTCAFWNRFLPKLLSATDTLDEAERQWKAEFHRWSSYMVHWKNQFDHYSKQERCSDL
Briefly: Ex vivo inhibition of AChE activity in brain of scopalamine-induced amnesia Wistar rat model at 10 mg/kg, po administered for 7 days and on day 7 administered with scopolamine at 30 mins before drug administration. Format: functional, organism-based. The note with it: time 7.0 day.

Series [15] deals with Rattus norvegicus. Kind of series: Antialzheimer activity against scopalamine-induced amnesia Wistar rat model assessed as inhibition of cognition impairment by measuring increase in spontaneous alterations at 2.5 to 10 mg/kg, po administered for 7 days and on day 7 administered with scopolamine at 30 mins before drug administration by Y-maze test. Format: functional, organism-based. The note with it: dose 2.5-10 mg/kg, time 7.0 day.

In series [16] the test system is HEK-293T. Briefly: Cytotoxicity against HEK293T cells assessed as reduction in cell viability at 100 uM measured after 44 hrs by WST-1 assay. Type of series: toxicity, cell-based. The note with it: human.
The target in series [17] is T3, Acetylcholinesterase (Rattus norvegicus). Kind of series: Ex vivo inhibition of AChE activity in brain of scopalamine-induced amnesia Wistar rat model at 2.5 to 10 mg/kg, po administered for 7 days and on day 7 administered with scopolamine at 30 mins before drug administration. The note with it: dose 2.5-10 mg/kg, time 7.0 day. Format: functional, organism-based.

In series [18] the target is T1, Acetylcholinesterase. Kind of series: Inhibition of human AChE.
Series [19] addresses T2, Acetylcholinesterase. Kind of series: Inhibition of electric eel AChE using acetylthiocholine iodide as substrate preincubated with enzyme for 10 mins followed by substrate addition and measured every 1 min for 20 mins by spectrophotometric analysis.
In the next series the test system is SH-SY5Y. Kind of series: Neuroprotective activity against human SH-SY5Y cells assessed as reduction of Abeta(1 to 42)-induced cytotoxicity upto 10 uM pretreated with Abeta42 for 24 hrs followed by incubation with compound for 72 hrs by MTT assay. Type of series: functional, cell-based.
In series [20] the test system is Rattus norvegicus. Briefly: Antialzheimer activity against scopalamine-induced amnesia Wistar rat model assessed as inhibition of cognition impairment by measuring increase in spontaneous alterations at 10 mg/kg, po administered for 7 days and on day 7 administered with scopolamine at 30 mins before drug administration by Y-maze test. The note with it: time 7.0 day. Format: functional, organism-based.

The target in another series is Cholinesterase (Equus caballus, UniProt P81908). Kind of series: Inhibition of equine serum BuChE using butyrylthiocholine iodide as substrate preincubated with enzyme for 10 mins followed by substrate addition and measured every 1 min for 20 mins by spectrophotometric analysis.
Series [21] concerns Rattus norvegicus. Briefly: Antialzheimer activity against Abeta(1 to 42)-induced coginitive deficit Wistar rat model assessed as increase in time spent in the platform zone at 10 mg/kg, po administered for 7 days by Morris water maze test. Type of series: functional, organism-based. The note with it: time 7.0 day.
Series [22] deals with Amyloid-beta precursor protein (Homo sapiens) (UniProt P05067). Kind of series: Inhibition of AChE-induced Amyloid beta (1 to 42 residues) (unknown origin) aggregation at Abeta(1 to 42) to compound concentration ratio of 10:5 to 10:20 uM incubated for 48 hrs by ThT fluorescence method.
Series [23] in a line: Selectivity index, ratio of IC50 for equine serum BuChE to IC50 for electric eel AChE.
In series [24] the target is Amyloid-beta precursor protein (Homo sapiens) (UniProt P05067). Kind of series: Inhibition of self-induced Amyloid beta (1 to 42 residues) (unknown origin) aggregation at Abeta(1 to 42) to compound concentration ratio of 10:5 to 10:20 uM incubated for 48 hrs by ThT fluorescence method.
For series [25], the target named is Glutamate receptor ionotropic, NMDA 2A (Homo sapiens, UniProt Q05586+Q12879). Briefly: Antagonist activity at GluN2A NMDA receptor (unknown origin).
Glutamate receptor ionotropic, NMDA 2A, sequence (Q12879 whole entry, one chain of several): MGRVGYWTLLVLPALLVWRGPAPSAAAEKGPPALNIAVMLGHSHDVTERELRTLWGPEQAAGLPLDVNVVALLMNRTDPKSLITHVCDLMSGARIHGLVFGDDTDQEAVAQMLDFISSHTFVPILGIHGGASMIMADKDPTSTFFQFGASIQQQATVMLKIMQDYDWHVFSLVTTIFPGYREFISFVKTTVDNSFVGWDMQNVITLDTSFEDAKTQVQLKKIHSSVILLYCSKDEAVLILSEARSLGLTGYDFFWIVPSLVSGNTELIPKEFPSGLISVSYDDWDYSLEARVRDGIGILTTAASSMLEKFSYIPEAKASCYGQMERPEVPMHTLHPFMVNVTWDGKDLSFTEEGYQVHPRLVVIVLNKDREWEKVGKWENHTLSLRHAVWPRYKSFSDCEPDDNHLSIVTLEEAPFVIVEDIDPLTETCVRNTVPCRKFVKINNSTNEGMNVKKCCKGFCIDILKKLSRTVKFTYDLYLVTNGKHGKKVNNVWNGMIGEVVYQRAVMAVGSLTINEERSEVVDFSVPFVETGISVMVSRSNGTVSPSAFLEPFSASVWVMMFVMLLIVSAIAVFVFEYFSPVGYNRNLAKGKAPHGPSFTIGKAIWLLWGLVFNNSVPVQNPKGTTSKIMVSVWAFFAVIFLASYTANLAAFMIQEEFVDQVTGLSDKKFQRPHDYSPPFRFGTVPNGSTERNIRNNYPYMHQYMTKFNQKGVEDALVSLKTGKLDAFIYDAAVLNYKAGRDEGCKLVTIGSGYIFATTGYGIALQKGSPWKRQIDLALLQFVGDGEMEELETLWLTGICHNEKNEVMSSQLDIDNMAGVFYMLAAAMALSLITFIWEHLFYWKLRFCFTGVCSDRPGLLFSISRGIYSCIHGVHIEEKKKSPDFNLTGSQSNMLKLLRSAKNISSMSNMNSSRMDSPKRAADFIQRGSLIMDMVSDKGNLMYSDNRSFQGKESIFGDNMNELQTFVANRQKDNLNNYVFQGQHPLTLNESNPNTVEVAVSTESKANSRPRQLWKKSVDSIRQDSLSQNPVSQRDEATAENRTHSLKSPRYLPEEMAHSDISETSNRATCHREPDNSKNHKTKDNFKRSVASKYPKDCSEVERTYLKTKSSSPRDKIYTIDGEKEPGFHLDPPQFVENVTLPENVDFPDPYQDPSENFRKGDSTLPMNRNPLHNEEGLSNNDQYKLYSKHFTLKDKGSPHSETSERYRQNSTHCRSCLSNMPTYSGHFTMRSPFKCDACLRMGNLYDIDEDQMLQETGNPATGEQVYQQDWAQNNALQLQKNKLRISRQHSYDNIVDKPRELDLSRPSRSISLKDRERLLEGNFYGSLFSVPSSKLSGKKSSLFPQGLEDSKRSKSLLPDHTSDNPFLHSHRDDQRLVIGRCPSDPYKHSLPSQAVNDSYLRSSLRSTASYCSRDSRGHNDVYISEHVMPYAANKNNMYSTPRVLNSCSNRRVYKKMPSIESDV

Amyloid-beta precursor protein (Homo sapiens), sequence (P05067 whole entry, the tested form may be a part): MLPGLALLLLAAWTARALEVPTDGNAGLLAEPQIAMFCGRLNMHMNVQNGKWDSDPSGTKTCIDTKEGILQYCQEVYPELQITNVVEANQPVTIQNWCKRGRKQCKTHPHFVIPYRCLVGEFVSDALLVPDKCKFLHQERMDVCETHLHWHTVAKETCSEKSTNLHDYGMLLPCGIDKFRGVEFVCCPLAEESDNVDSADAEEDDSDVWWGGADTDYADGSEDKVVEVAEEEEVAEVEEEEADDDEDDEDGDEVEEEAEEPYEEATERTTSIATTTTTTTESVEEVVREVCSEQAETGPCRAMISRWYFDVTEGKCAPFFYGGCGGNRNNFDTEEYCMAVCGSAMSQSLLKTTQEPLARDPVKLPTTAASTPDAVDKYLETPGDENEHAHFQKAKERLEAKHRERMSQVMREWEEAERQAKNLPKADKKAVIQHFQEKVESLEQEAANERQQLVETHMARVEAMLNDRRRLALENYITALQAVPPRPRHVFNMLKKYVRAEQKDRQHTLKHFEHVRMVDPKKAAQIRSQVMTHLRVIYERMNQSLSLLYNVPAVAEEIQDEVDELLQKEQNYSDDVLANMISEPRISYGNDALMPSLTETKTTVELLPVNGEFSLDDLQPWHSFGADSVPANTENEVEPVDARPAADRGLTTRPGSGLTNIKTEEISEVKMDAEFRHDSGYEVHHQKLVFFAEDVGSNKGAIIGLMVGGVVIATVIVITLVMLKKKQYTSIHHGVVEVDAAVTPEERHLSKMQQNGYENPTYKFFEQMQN
T2 sequence (O42275 whole entry): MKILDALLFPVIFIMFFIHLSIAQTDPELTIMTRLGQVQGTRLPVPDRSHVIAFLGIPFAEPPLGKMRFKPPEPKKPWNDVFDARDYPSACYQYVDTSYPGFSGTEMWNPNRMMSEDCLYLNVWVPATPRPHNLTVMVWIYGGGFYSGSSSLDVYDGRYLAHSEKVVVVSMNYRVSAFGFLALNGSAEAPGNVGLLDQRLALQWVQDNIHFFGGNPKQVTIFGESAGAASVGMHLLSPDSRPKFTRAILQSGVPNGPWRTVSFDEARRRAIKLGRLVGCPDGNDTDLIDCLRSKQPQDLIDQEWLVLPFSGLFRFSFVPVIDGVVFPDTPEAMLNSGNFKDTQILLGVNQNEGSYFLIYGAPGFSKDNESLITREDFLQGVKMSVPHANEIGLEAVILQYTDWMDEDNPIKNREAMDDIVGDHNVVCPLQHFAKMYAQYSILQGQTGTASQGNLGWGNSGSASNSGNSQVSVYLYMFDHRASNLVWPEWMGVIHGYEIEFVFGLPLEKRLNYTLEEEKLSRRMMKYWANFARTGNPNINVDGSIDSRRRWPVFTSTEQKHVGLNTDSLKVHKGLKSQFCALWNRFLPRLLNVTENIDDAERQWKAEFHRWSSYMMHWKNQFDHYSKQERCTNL
T1 sequence (P22303 whole entry): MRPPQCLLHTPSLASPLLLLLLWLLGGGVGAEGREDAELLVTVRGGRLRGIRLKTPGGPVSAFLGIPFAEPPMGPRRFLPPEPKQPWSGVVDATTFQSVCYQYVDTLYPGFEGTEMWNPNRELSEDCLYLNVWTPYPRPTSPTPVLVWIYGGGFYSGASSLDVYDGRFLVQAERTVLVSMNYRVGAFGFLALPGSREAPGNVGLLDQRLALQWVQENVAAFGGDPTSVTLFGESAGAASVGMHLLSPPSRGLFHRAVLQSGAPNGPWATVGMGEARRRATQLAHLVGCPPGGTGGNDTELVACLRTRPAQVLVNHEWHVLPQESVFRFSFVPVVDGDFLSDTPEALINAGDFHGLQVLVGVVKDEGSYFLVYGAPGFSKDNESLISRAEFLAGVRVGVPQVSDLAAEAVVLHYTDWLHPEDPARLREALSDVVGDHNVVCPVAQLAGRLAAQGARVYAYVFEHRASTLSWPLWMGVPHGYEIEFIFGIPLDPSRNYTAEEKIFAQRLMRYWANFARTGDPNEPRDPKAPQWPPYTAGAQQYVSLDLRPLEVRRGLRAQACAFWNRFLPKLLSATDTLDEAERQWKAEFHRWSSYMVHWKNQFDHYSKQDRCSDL
Cholinesterase, sequence (P81908 whole entry): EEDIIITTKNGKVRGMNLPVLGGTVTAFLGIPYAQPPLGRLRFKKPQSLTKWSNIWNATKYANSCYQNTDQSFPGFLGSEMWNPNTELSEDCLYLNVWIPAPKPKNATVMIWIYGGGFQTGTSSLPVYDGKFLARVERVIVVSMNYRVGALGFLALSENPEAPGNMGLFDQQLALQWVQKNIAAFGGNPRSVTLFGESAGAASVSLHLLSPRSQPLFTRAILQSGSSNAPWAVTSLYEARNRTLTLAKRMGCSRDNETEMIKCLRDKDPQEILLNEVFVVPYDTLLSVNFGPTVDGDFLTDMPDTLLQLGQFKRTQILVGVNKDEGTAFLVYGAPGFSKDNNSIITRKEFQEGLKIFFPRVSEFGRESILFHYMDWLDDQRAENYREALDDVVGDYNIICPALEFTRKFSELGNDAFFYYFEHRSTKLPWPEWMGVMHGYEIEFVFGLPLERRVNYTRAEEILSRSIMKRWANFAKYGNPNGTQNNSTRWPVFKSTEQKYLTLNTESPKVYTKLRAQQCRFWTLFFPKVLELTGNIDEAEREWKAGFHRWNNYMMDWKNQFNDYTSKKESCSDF
Description for in vitro: Permeability of the compound at 25 ug/ml incubated or 18 hrs by PAMPA-BBB assay

The term IC50 denotes the concentration at which inhibition is half-maximal. For orientation: Papp means the rate of passage across a membrane or cell layer, normalised by area and donor concentration. Low values mean poor permeation, high ones ready permeation. In the case of `CC12CC3CC(C)(C1)CC(N)(C3)C2` [MEMANTINE], the IC50 was 592 nM in series [1]; 3390 nM in series [2]; 222 nM in series [3]; 1270 nM in series [4]; 3470 nM in series [5]; 367 nM in series [6]. The values for the IC50 (in series [7]; in series [8]; against Acetylcholinesterase [10]) were 318 nM, 778 nM and 780 nM, respectively. Besides, the Papp at 18 h, 25 ug/ml in the series “in vitro” is 6.84 ×10⁻⁶ cm/s. Moreover, in the series on HEK-293T [9], the Activity result is given as “Toxic”.
As usually defined, the Ki is a measure of affinity in units of concentration, obtained from inhibition or displacement. A lower Ki goes with a stronger hold on the target. Take `Brc1ccc(Cn2cc(CNC34CC5CC(CC(C5)C3)C4)nn2)cc1`: the IC50 was 99500 nM in series [1]; 36500 nM in [2]; 90200 nM in [3]; 3000 nM in [4]; 47400 nM in series [5]; 112000 nM in [6]. Besides, the IC50 in [7] came out at 45100 nM; against Acetylcholinesterase [18] it was 92 nM; against Acetylcholinesterase [19], 86 nM; in [8] it was 3880 nM; at Cholinesterase it was 2550 nM. The result in the series with Rattus norvegicus [11], with SH-SY5Y, in the series on Rattus norvegicus [20] and in the series with Rattus norvegicus [21] was Active. Also, at Acetylcholinesterase [12], the Ki came out at 26 nM. The compound also registered a Papp at 18 h, 25 ug/ml in “in vitro” of 8.75 ×10⁻⁶ cm/s. The Activity result was “Non-Toxic” in the series with HEK-293T [13], “Dose-Dependent Effect” in the series with Rattus norvegicus [15] and “Toxic” in the series on HEK-293T [16]. For the same compound, the inhibition result in series [14] is “Active”. In addition, the inhibition result in [17], in series [22] and in [24] was “Dose-Dependent Effect” in each case. Moreover, in series [23], the Ratio IC50 came out at 29.6.
In series [25], `CC(C(O)c1ccc(O)cc1)N1CCC(Cc2ccccc2)CC1` (configuration not stated) [IFENPRODIL] gave an IC50 of 146000 nM.
